# Experimental data as given in patent US7071316B1, “Human Akt-3” (Janssen Pharmaceutica N.V., priority 1998, dated 2006).
# Several values for one entry are separate records, joined by “and”; a condition that tells them apart may be missing. Equal values may be shown once.
# B1: GST-Akt-3 wild type (construct hAKT-3(WT)/pGEX-4T-3) (protein)
# chain: MSDVTIVKEGWVQKRGEYIKNWRPRYFLLKTDGSFIGYKEKPQDVDLPYPLNNFSVAKCQLMKTERPKPNTFIIRCLQWTTVIERTFHVDTPEEREEWTEAIQAVADRLQRQEEERMNCSPTSQIDNIGEEEMDASTTHHKRKTMNDFDYLKLLGKGTFGKVILVREKASGKYYAMKILKKEVIIAKDEVAHTLTESRVLKNTRHPFLTSLKYSFQTKDRLCFVMEYVNGGELFFHLSRERVFSEDRTRFYGAEIVSALDYLHSGKIVYRDLKLENLMLDKDGHIKITDFGLCKEGITDAATMKTFCGTPEYLAPEVLEDNDYGRAVDWWGLGVVMYEMMCGRLPFYNQDHEKLFELILMEDIKFPRTLSSDAKSLLSGLLIKDPNKRLGGGPDDAKEIMRHSFFSGVNWQDVYDKKLVPPFKPQVTSETDTRYFDEEFTAQTITITPPEKYDEDGMDCMDNERRPHFPQFSYSASGRE
# What was measured:
# histone H2B [1] = test system: histone H2B
# [2] = molecular target: T1, T305D,S472D variant of Akt-3 (Homo sapiens, UniProt Q9Y243, S472D/T305D); assay: Akt-3 histone H2B phosphorylation assay (GST fusion protein from E. coli, phosphorimager after SDS-PAGE); format: biochemical; conditions: for effect on the activity of the T305D,S472D variant of Akt-3: tested at a concentration of 10 FM
# T1 construct: made in house; host or cells: E. coli BL21 DE3 (pGEX-4T-3)
# Method: After 30 minutes, the reaction was terminated and the extent of H2B phosphorylation quantified on a phosphorimager following SDS-PAGE.
# The pGEX expression constructs were transformed into E. coli strain BL21 DE3 and GST-fusion proteins of wild-type and mutated Akt-3 were purified on glutathione sepharose according to the manufacturers instructions (Amersham Pharmacia Biotech, Uppsala, Sweden). The protein eluted from the beads was stored in 50% glycerol at −20° C. Akt activity was assessed by incubating 0.8 Fg of the purified enzyme for 30 minutes at room temperature (unless otherwise indicated) in a buffer containing 10 mM HEPES, 10 mM MgCl2, 1 mM DTT, 0.1 mg/ml histone H2B at pH 7.0, in a total volume of 25 Fl and containing 10 FCi [γ-^32P]-ATP (6000 Ci/mmol). […] The reaction was stopped by the addition of 25 Fl sample buffer for SDS-PAGE. The results were quantified on a phosphorimager following SDS-PAGE on a 15% (w/v) acrylamide gel.
# Akt-3 [3] = assay: Activation of HA-tagged Akt-3 by IGF in transfected HEK-293 cells (immunoprecipitate, Crosstide phosphorylation); format: cell-based, human
# Method: FIG. 3 is an illustration of phosphorylation of histone H2B by Akt-3 variants. (A) Akt-3 was expressed as a GST fusion protein in E. Coli. To assess hAkt-3 activity, Histone H2B was incubated with GST-Akt-3 and GST-Akt-3 variants for the indicated time and the extent of phosphorylation assessed after SDS-PAGE. The variants of Akt-3 are designated: W.T., wild type; T305D, Thr^305 mutated to Asp; S472D, Ser^472 mutated to Asp; T305D,S472D, both Thr^305 and Ser^472 mutated to Asp. No significant phosphorylation was observed when GST was used in place of GST-Akt. […] Samples were analysed by blotting for the HA-tag (upper panel) or with a phosphospecific antibody which recognises phosphorylated ser^472 (lower panel). (C) Akt activity in HA-immuno-precipitates from samples prepared as described above was assessed by measuring phosphorylation of a peptide substrate (Crosstide). The results are expressed as the increase in activity compared to unstimulated cells transfected with empty vector (mean±s.e.m., n=7).
# For expression in HEK-293 cells, cells were transfected with pCDNA-3 Akt-3 constructs as described previously (Alessi et al 1996). […] Akt activity was assessed in immune complexes by measuring phosphorylation of a peptide substrate (Crosstide) in the presence of 1 μM PKI (PKA inhibitor) and 1 μM […] (PKC inhibitor) as described.
# Akt-3 [4] = assay: Activation of HA-tagged Akt-3 by IGF-1 in transfected Cos-7 cells (HA immunoprecipitates); format: cell-based, human; conditions: stimulation with IGF-1 10 ng/ml, n=2
# Method: Akt-3 was transiently expressed in Cos-7 by calcium phosphate transfection of the cells with the construct HA-hAkt-3/pcDNA-3. The cells were stimulated with 10 ng/ml IGF-1 for 30 minutes, lysed and Akt-3 immunoprecipitated with mAb 12CA5. Akt-3 activity was assessed as described below.
# PKC [5] = assay: Inhibition of PKC (literature, Davis et al., 1992); format: biochemical; conditions: more potent inhibitor of PKC than of Akt-3
# PKC [6] = conditions: Davis, et al., 1992; cited from earlier work
# histone H2B [7] = molecular target: histone H2B; remark: listed apart in the source
# T1 sequence (Q9Y243 whole entry T305D/S472D, the tested form may be a part): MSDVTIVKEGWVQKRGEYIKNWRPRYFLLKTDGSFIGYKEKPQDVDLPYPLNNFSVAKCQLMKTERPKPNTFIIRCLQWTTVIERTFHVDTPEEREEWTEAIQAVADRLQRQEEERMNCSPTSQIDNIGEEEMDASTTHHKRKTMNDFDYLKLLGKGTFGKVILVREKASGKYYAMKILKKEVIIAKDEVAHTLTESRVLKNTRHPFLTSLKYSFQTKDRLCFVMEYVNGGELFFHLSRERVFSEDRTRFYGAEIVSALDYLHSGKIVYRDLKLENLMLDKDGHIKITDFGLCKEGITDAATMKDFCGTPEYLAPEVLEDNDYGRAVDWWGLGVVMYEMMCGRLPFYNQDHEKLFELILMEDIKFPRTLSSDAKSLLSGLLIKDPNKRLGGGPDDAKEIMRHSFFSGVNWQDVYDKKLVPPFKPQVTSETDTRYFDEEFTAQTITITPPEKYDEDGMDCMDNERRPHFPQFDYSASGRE
molecule,measurement,setting,value
GST-Akt-3 S472D (construct hAKT-3(S472D)/pGEX-4T-3),"initial rate of phosphorylation of histone H2B, relative to the wild-type enzyme",histone H2B [1],increased the initial rate only 1.4 fold
CN([C@@H](Cc1ccc(OS(=O)(=O)c2cccc3cnccc23)cc1)C(=O)N1CCN(c2ccccc2)CC1)S(=O)(=O)c1cccc2cnccc12 [KN-62],"effect on the activity of the T305D,S472D variant of Akt-3",[2],no significant effect
CN(C)CCCn1cc(C2=C(c3c[nH]c4ccccc34)C(=O)NC2=O)c2ccccc21 [GF-109203×],"effect on the activity of the T305D,S472D variant of Akt-3",[2],no significant effect
O=c1cc(N2CCOCC2)oc2c(-c3ccccc3)cccc12 [CY29 4002],inhibition of activation of Akt-3,"Akt-3 [3]; prior treatment, 100 FM, HEK-293 cells stimulated with IGF, data not shown",94%
O=S(=O)(NCCNCC=Cc1ccccc1)c1cccc2cnccc12 [H-88],"effect on the activity of the T305D,S472D variant of Akt-3",[2],no significant effect
Cn1c2ccccc2c2c3c(c4c5ccccc5n(CCC#N)c4c21)CNC3=O [Go 6976],"effect on the activity of the T305D,S472D variant of Akt-3",[2],no significant effect
IGF-1: extracellular stimulus (growth factor) used to activate Akt-3 in transfected cells,increase of Akt-3 activity in anti-HA immunoprecipitates,"Akt-3 [3]; upon treatment with IGF (50 ng/ml), above that in untransfected cells, HEK-293",~60 fold
same,increase of Akt-3 activity in HA immunoprecipitates,Akt-3 [4],1.5 fold and 1.9 fold
O=S(=O)(NCCNC/C=C/c1ccc(Br)cc1)c1cccc2cnccc12 [H-89],"effect on the activity of the T305D,S472D variant of Akt-3",[2],no significant effect
Cn1cc(C2=C(c3cn(CCCSC(=N)N)c4ccccc34)C(=O)NC2=O)c2ccccc21 [Ro 31-8220],inhibition of Akt-3 (in words),[2]; discussion summary of the inhibitor panel,potently inhibited
same,potency as inhibitor of PKC relative to Akt-3,PKC [5],approximately 100 fold
same,IC50,PKC [6],0.1 nM
"GST-Akt-3 T305D,S472D (construct hAKT-3(T305D/S472D)/pGEX-4T-3)","initial rate of phosphorylation of histone H2B, relative to the wild-type enzyme",histone H2B [1],3.2-fold increase
COc1cccc(-c2cc(=O)c3ccccc3o2)c1N [PD 98059],"effect on the activity of the T305D,S472D variant of Akt-3",[2],no significant effect
GST-Akt-3 T305D (construct hAKT-3(T305D)/pGEX-4T-3),"initial rate of phosphorylation of histone H2B, relative to the wild-type enzyme",histone H2B [1],2.0-fold increase
CCCCCCOC(=O)[C@]1(O)C[C@@H]2O[C@@]1(C)n1c3ccccc3c3c4c(c5c6ccccc6n2c5c31)C(=O)NC4 [KT5720],"effect on the activity of the T305D,S472D variant of Akt-3",[2],no significant effect
B1,phosphorylation of histone H2B,histone H2B [7],The purified enzyme was able to phosphorylate histone H2B
